Test results published in patent publication US20180002319A1, “MACROCYCLIC PICOLINAMIDE COMPOUNDS WITH FUNGICIDAL ACTIVITY” (DOW AGROSCIENCES LLC, priority 2014, published 2018).
Where two headings read alike, the source gives them in different places.

Columns and labels:
[1] = system: Zymoseptoria tritici; assay: Leaf Blotch of Wheat (SEPTTR) fungicidal activity; type: in vivo; conditions: for pest or weed control at 121.5 g/ha: Low Volume application, 121.5 g/H
How it was run: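 Wheat seedlings (Yuma, first leaf emerged) were sprayed to run-off with compound in acetone/water containing Triton X-100 and inoculated with Z. tritici spores before or after treatment. Percent disease control comes from 0–100% severity on treated versus untreated plants.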

[2] = system: Puccinia triticina; assay: Wheat Brown Rust (PUCCRT) fungicidal activity; type: in vivo; conditions: for pest or weed control at 100 ppm: High Volume application; for pest or weed control at 121.5 g/ha: Low Volume application, 121.5 g/H
How it was run: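 Yuma wheat seedlings at first-leaf stage sprayed to run-off with acetone/water (Triton X-100) solutions, inoculated with P. triticina spores before or after treatment. Overnight dark dew at 22° C, then greenhouse at 24° C; percent disease control from severity versus untreated plants.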

[3] = 24 h, High Volume application, 100 ppm, wheat leaf blotch, 1 day protectant, read-out: SEPTTR disease control, 1DP (1 Day Protectant)
[4] = 72 h, High Volume application, 100 ppm, wheat leaf blotch, 3 day curative, read-out: SEPTTR disease control, 3DC (3 Day Curative)
[5] = 24 h, 1 day protectant, read-out: PUCCRT disease control, 1DP (1 Day Protectant)
[6] = 72 h, 3 day curative, read-out: PUCCRT disease control, 3DC (3 Day Curative)

## COc1ccnc(C(=O)N[C@H]2COCCC[C@@H](CCC(C)C)[C@H](C)OC2=O)c1OC(C)=O [Compound 39]
[1]; [3]
  pest or weed control at 100 ppm: > 80%
[1]; [4]
  pest or weed control at 100 ppm: > 80%
other
  melting point: 57 to 62 °C
[2]; [5]
  pest or weed control at 100 ppm: > 80%
[2]; [6]
  pest or weed control at 100 ppm: > 80%

## COc1ccnc(C(=O)N[C@H]2CCOC[C@H](Cc3ccccc3)[C@@H](OCC(C)C)[C@H](C)OC2=O)c1O [Compound 95]
[1]; [3]
  pest or weed control at 100 ppm: > 80%
[1]; [4]
  pest or weed control at 100 ppm: < 80%
other
  melting point: 197 to 198 °C
[2]; [5]
  pest or weed control at 100 ppm: > 80%
[2]; [6]
  pest or weed control at 100 ppm: < 80%

## COc1ccnc(C(=O)N[C@H]2CCCC[C@H](CC3CCCC3)[C@@H](OC)[C@H](C)OC2=O)c1O [Compound 125]
[1]; [3]
  pest or weed control at 100 ppm: < 80%
[1]; [4]
  pest or weed control at 100 ppm: < 80%
[2]; [5]
  pest or weed control at 100 ppm: > 80%
[2]; [6]
  pest or weed control at 100 ppm: < 80%

## COc1ccnc(C(=O)N[C@H]2COCC[C@H](Cc3ccccc3)[C@@H](Oc3ccccc3)[C@H](C)OC2=O)c1O [Compound 126]
[1]; [3]
  pest or weed control at 100 ppm: > 80%
[1]; [4]
  pest or weed control at 100 ppm: < 80%
[2]; [5]
  pest or weed control at 100 ppm: > 80%
[2]; [6]
  pest or weed control at 100 ppm: > 80%

## COc1ccnc(C(=O)N[C@H]2CCCC[C@H](Cc3ccccc3)[C@@H](OC(=O)C(C)C)[C@H](C)OC2=O)c1O [Compound 127]
[1]; [3]
  pest or weed control at 100 ppm: > 80%
[1]; [4]
  pest or weed control at 100 ppm: < 80%
[2]; [5]
  pest or weed control at 100 ppm: > 80%
[2]; [6]
  pest or weed control at 100 ppm: > 80%

## COc1ccnc(C(=O)N[C@H]2CCCC[C@H](Cc3ccccc3)[C@@H](Oc3ccccc3)[C@H](C)OC2=O)c1O [Compound 128]
[1]; [3]
  pest or weed control at 100 ppm: > 80%
[1]; [4]
  pest or weed control at 100 ppm: < 80%
[2]; [5]
  pest or weed control at 100 ppm: > 80%
[2]; [6]
  pest or weed control at 100 ppm: > 80%

## COc1ccc(C[C@H]2CCOC[C@H](NC(=O)c3nccc(OC)c3O)C(=O)O[C@@H](C)[C@@H]2Oc2ccccc2)cc1 [Compound 129]
[1]; [3]
  pest or weed control at 100 ppm: > 80%
[2]; [5]
  pest or weed control at 100 ppm: > 80%
[2]; [6]
  pest or weed control at 100 ppm: > 80%

## CC[C@H]1CCOC[C@H](NC(=O)c2nccc(OC)c2O)C(=O)O[C@@H](C)[C@@H]1Oc1ccccc1 [Compound 130]
[1]; [3]
  pest or weed control at 100 ppm: < 80%
[1]; [4]
  pest or weed control at 100 ppm: > 80%
[2]; [5]
  pest or weed control at 100 ppm: > 80%
[2]; [6]
  pest or weed control at 100 ppm: > 80%

## CC[C@H]1CCOC[C@H](NC(=O)c2nccc(OC)c2O)C(=O)O[C@@H](C)[C@@H]1OCC(C)C [Compound 131]
[1]; [4]
  pest or weed control at 100 ppm: < 80%
[2]; [5]
  pest or weed control at 100 ppm: > 80%
[2]; [6]
  pest or weed control at 100 ppm: > 80%

## COc1ccnc(C(=O)N[C@H]2COCC[C@H](Cc3ccc(F)cc3)[C@@H](Oc3ccccc3)[C@H](C)OC2=O)c1O [Compound 132]
[1]; [3]
  pest or weed control at 100 ppm: > 80%
[2]; [5]
  pest or weed control at 100 ppm: > 80%
[2]; [6]
  pest or weed control at 100 ppm: > 80%

## COc1ccnc(C(=O)N[C@H]2COCC[C@H](Cc3ccc(F)cc3)[C@@H](OCC3CC3)[C@H](C)OC2=O)c1O [Compound 133]
[1]; [3]
  pest or weed control at 100 ppm: < 80%
[1]; [4]
  pest or weed control at 100 ppm: < 80%
[2]; [5]
  pest or weed control at 100 ppm: > 80%
[2]; [6]
  pest or weed control at 100 ppm: > 80%

## COc1ccnc(C(=O)N[C@H]2COCC[C@H](Cc3ccc(F)cc3)[C@@H](OC(=O)C(C)C)[C@H](C)OC2=O)c1O [Compound 134]
[1]; [3]
  pest or weed control at 100 ppm: > 80%
[1]; [4]
  pest or weed control at 100 ppm: > 80%
[2]; [5]
  pest or weed control at 100 ppm: > 80%
[2]; [6]
  pest or weed control at 100 ppm: < 80%

## CC[C@H]1CCOC[C@H](NC(=O)c2nccc(OC)c2O)C(=O)O[C@@H](C)[C@@H]1OC(=O)c1ccccc1 [Compound 135]
[1]; [3]
  pest or weed control at 100 ppm: > 80%
[1]; [4]
  pest or weed control at 100 ppm: > 80%
[2]; [5]
  pest or weed control at 100 ppm: > 80%
[2]; [6]
  pest or weed control at 100 ppm: > 80%

## CC[C@H]1CCOC[C@H](NC(=O)c2nccc(OC)c2O)C(=O)O[C@@H](C)[C@@H]1OC(=O)C1CC1 [Compound 136]
[1]; [4]
  pest or weed control at 100 ppm: < 80%
[2]; [5]
  pest or weed control at 100 ppm: > 80%
[2]; [6]
  pest or weed control at 100 ppm: > 80%

## CCC[C@H]1CCCC[C@H](NC(=O)c2nccc(OC)c2OCOC(C)=O)C(=O)O[C@@H](C)[C@@H]1OCC(C)C [compound 30, ((2-(((3S,8S,9R,10S)-9-isobutoxy-10-methyl-2-oxo-8-propyloxecan-3-yl)carbamoyl)-4-methoxypyridin-3-yl)oxy)methyl acetate]
[1]; 24 h, wheat leaf blotch, 1 day protectant, read-out: SEPTTR disease control, 1DP (1 Day Protectant)
  pest or weed control at 121.5 g/ha: < 80%
[1]; 72 h, wheat leaf blotch, 3 day curative, read-out: SEPTTR disease control, 3DC (3 Day Curative)
  pest or weed control at 121.5 g/ha: < 80%
[2]; [5]
  pest or weed control at 121.5 g/ha: > 80%
[2]; [6]
  pest or weed control at 121.5 g/ha: < 80%

## CCC[C@H]1CCCC[C@H](NC(=O)c2nccc(OC)c2O)C(=O)O[C@@H](C)[C@@H]1OCC(C)C [compound 105, 3-hydroxy-N-((3S,8S,9R,10S)-9-isobutoxy-10-methyl-2-oxo-8-propyloxecan-3-yl)-4-methoxypicolinamide]
[1]; 24 h, read-out: SEPTTR disease control, 1DP (1 Day Protectant)
  pest or weed control at 100 ppm: < 80%
[1]; 72 h, read-out: SEPTTR disease control, 3DC (3 Day Curative)
  pest or weed control at 100 ppm: < 80%
[2]; [5]
  pest or weed control at 100 ppm: < 80%
[2]; [6]
  pest or weed control at 100 ppm: < 80%
